# Patent US20250009716A1, “NOVEL INHIBITORS OF CLAUDIN-1 FOR THERAPEUTIC INTERVENTIONS” (BOARD OF REGENTS OF THE UNIVERSITY OF NEBRASKA, priority 2021, published 2025)
# Entries after “also recorded” stand apart in the source; their conditions may differ.
# Tests used:
# [1] = Cell survival assay of three inhibitors (FIG. 2B); type: cell-based
# Experimental: (A) In-silico 3D-structure of claudin-1, cavities that can be targeted by small molecules were defined using Molegro Virtual Docker. (B) Cell survival assay showing effects of three different inhibitors (I1, I2 and 16). […] (C) Effect of 16 treatment (72 hours) upon resistance to anoikis in claudin-1 overexpressing SW480 cells and claudin-1 deficient HCT116 cells. (D) Effect of 16 treatment on cell invasion in SW480claudin-1 cells. (E) Effect of inhibitor 16 on xenograft tumors. Tumors were induced for two weeks after which 16 was injected i.p (10 mg/kg). Effect on tumor growth was monitored.
# [2] = test system: claudin-1 overexpressing cells; assay: Co-treatment with 5FU, inhibition of cell growth; type: cell-based; settings: 16 in combination with 5-FU
# From the text: Curve fitting analysis was done using four parametric logistic regression curve.
# The CSC cells contribute to the generation of metastasis (16-19), and key CSC characteristics are highly relevant to metastasis, including invasive motility, and, resistance to apoptosis (20,21). […] Considering that chemoresistance is central to the CRC progression and metastasis, we further tested if adjuvant use of 16 with 5FU can have significant bearing upon these traits. Colon cancer cells were subjected to exogenous administration of 16 alone, or in combination with the 5-FU, the conventional anti-CRC drug. […] To further determine the mechanistic details the effect of 16 on association of claudin-1 and Src, SW480claudin-1 cells were treated with 16 or the vehicle and resultant cell lysate was subjected to Proximity ligation assay (PLA) or Co—IP.
# [3] = Pharmacokinetics after single i.v. dose; type: in vivo, mice
# Experimental: (§1) To determine the in vivo characteristics of this drug, a pharmacokinetic and tissue distribution study on 16 was performed. Following a single i.v. dose of 16 (1 mg/kg) in mice (C57B/16; n=5), serial blood samples were obtained at 0.08, 0.25, 0.75, 2, 4, 6, 8 and 24 hours after the injection and plasma samples were analyzed for 16 concentrations. Pharmacokinetic parameter values were obtained from the plasma concentration-time data using standard non-compartmental methods (WinNonlin, PharSight Corp). […] To assess the tissue distribution of 16, mice were sacrificed at 2, 8 and 24 hours after the i.v. administration of the drug. Measurable concentrations of 16 were detected in all studied tissues at 2, 8, and 24 h. […] Next, metabolic stability studies of 16 was evaluated using mouse liver S9 fractions for the in vitro assessment of phase I and II metabolism. […] Testosterone, 7-HC and diclofenac were used as positive controls, ensuring proper incubation conditions were maintained. […] The results of these in vitro drug metabolism studies guided the rational development of 16 structural analogs.
# Pharmacokinetic parameter values were estimated from the plasma concentration-time data using standard noncompartmental methods and software (WinNonlin, PharSight Corp). […] Terminal elimination half-life (t1/2) was calculated by dividing 0.693 by terminal elimination rate constant Iz. Drug clearance (Cl) was calculated using standard equations. Area under the plasma concentration-time curve from 0 to 24 hours (AUCO-24) was calculated with the linear-log trapezoidal rule. The area under the plasma concentration-time curve from 0 to infinity (AUCO-infinity) was calculated as AUCO-24+C24/Iz. The absolute bioavailability (F) was calculated as the ratio between the AUCO-infinity from oral and intravenous routes using standard equations (FIG. 39).
# [4] = Tissue distribution after i.v. dose; type: in vivo, mice
# Experimental: as §1
# Eight-week-old healthy Balb/c mice (male and female) mice were utilized for the pharmacokinetic and biodistribution studies. In this section, up to two different administration routes (oral or IP) were evaluated for each selected drug product. The specified drug and dose were administered to a 25 g mouse. A total of 36 mice were used for each compound tested. Blood was collected by cheek bleeding at selected times between 0-168 h post-injection. Liver, spleen, kidney, brain and bone marrow were harvested at terminal time points (2, 8, 24, 48, 72 h). Tissue samples were collected and processed for bioanalysis. The drug concentration in blood and tissues was measured by LC-MS/MS using methods developed during preliminary studies and validated according to FDA guidance. Drug accumulation in tissue was assessed by calculating a tissue to plasma concentration ratio (Kp), an indicator of drug accumulation (FIGS. 6A, 6B, 7, and 38).
# [5] = test system: SW620 cells xenograft tumors; assay: SW620 xenograft tumors; type: in vivo, athymic mice
# Experimental: SW620 cells were injected into dorsal flanks of athymic mice to form xenograft tumors. PDS-0330 was injected (5 and 10 mg/kg) when tumors became palpable. Effect on tumor volume and size was determined in time-dependent manner.
# The development of flank xenograft tumors in claudin-1 overexpressed SW620 cells injected nude mice was examined between vehicle and PDS-0330 (5 mg/kg and 10 mg/kg) treatment (n=5 mice per group). Representative images of tumor containing mice from the vehicle and PDS-0330 (10 mg/kg).
# [6] = test system: claudin-1 overexpressed patient-derived xenograft; assay: Patient-derived xenograft (PDX) tumors; type: in vivo, nude mice; settings: 5 mg/kg and 10 mg/kg
# Experimental: Representative images of tumors from the vehicle and PDS-0330 (5 mg/kg and 10 mg/kg)-treated claudin-1 overexpressed PDX implanted nude mice.
# Tumor volume was measured using calipers over time (n=5 mice per group). The formation of flank xenograft tumors in claudin-1 overexpressed PDX implanted nude mice was examined between vehicle and PDS-0330 (5 mg/kg and 10 mg/kg) treatment (n=5 mice per group). For graphs, data represent mean±SD; *, P<0.05; **, P<0.01; ***, P<0.001 & ****, P<0.0001.
# Establishment of fresh patient derived xenograft (PDX) with tumors from the operating room. Human patient colon cancers were excised under standard sterile conditions. Initially, tumor fragments were implanted subcutaneously within 30 min of patient surgery over the right and left upper and lower flanks in nude mice. Subcutaneous tumors were allowed to grow for 2-4 weeks until large enough to supply adequate tumor for orthotopic implantation for PDOX models.
Compound,"effect on cell survival, compared among I1, I2 and 16 [1]",combination effect with 5FU [2],clearance ([3]; 1 mg/kg i.v.),time up to which detectable in plasma ([3]; 1 mg/kg i.v.),"peak concentration ([3]; 1 mg/kg i.v., plasma)",mouse behavior or weight ([3]; 24 hours after single i.v. injection),"AUC ([3]; C57B/16, mouse, iv, 1 mg/kg i.v., plasma)","half-life ([3]; C57B/16, mouse, plasma, iv, 1 mg/kg i.v., read-out: elimination t1/2 (converted))","Vd ([3]; C57B/16, mouse, plasma, iv, 1 mg/kg i.v., read-out: volume of distribution)",descending order of Kp ratios ([4]; 1 mg/kg i.v.),"tissue concentrations ([4]; 2, 8 and 24 h after 1 mg/kg i.v.)","Kp ([4]; C57B/16, mouse, iv, all tissues except brain, 1 mg/kg i.v., read-out: tissue to plasma concentration ratio (Kp))",tumor size ([5]; 5 and 10 mg/kg),"tumor weight ([5]; mouse, in vivo)",tumor formation [6]
COc1cc2ccccc2cc1C(=O)NC(=S)Nc1ccc(-c2nc3ccccc3[nH]2)cc1 [Compound 16],most effective,significant synergy; also recorded: synergistic effect in inhibition of cell growth,13 mL/min/kg,up to 24 hrs,798 ng/mL,no change in mouse behavior or weight,1210 ng·h/mL,7 h,8.4 L/kg,lungs>liver>spleen>kidney>heart>>brain,higher concentrations in the lung and liver tissue,≥ 1,–,–,–
O=C(NC(=S)Nc1ccc(-c2nc3ccccc3o2)cc1)c1ccc2ccccc2c1 [PDS-0330],–,–,–,–,–,–,–,–,–,–,–,–,reduces tumor size in mice,significantly inhibited tumor weight,inhibits tumor formation
